The record followed here is patent US5922755A, “Immunomodulator, cell adhesion inhibtor, and agent for treating, and preventing autoimmune diseases” (Toyama Chemical Co., Ltd., priority 1993, dated 1999).

Assay [1] concerns hemolytic plaque forming cell (PFC) response. As to the kind of experiment: Hemolytic plaque forming cell (PFC) response, SRBC sensitization. In kind it is in vivo, BDF1 male mice. As to conditions: for PFC No./spleen: mean ± S.E.
For assay [2], the system named is delayed-type hypersensitivity. As to the kind of experiment: Delayed-type hypersensitivity potentiated in mice by cyclophosphamide pretreatment (SRBC-induced paw edema). In kind it is in vivo, BALB/c male mice. To be noted: Mus musculus, po, 120 h, read-out: Delayed-type paw edema inhibitions; for inhibition in vivo at 10 mg/kg: 10 mg/kg p.o. once a day for 5 days; for inhibition in vivo at 30 mg/kg: 30 mg/kg p.o. once a day for 5 days; for inhibition in vivo at 100 mg/kg: 100 mg/kg p.o. once a day for 5 days. The method, then: The effect of the test compounds on the delayed-type hypersensitivity. Delayed-type hypersensitivity in potentiated in mice by pretreatment with cyclophosphamide was carried out in accordance with the method of P. H. Lagrange et al., Journal of Experimental Medicine, Vol.139, pp.1529-1539(1974). In brief, BALB/c male mice (8 weeks old, 6 to 8 mice per group) were pretreated with intraperitoneal injection of 75 mg/kg cyclophosphamide. Four days after the injection, 0.2 ml SRBC (sheep red blood cells) suspension (5×10^7 cells/ml) was intravenously sensitized. Three days after the sensitization; delayed-type hypersensitive responses were induced with intradermally injection of 0.05 ml SRBC suspension (8×10^9 cells/ml) to the left hind paw. After 24 hours, the mice were killed and both hind paws were cut off at the ankle to determine the weight of the paw. The SRBC-induced edema was measured as the difference between the left and right paw weights. The inhibitory percentage in paw edema produced by the compound treatment was expressed relative to the edema from the control mice. The test compounds were suspended in 0.5% carboxymethylcellulose (CMC) solution and were administered p.o. once a day for 5 days from 2 days prior to the sensitization. 0.5 % CMC solution instead of the test compounds was administered to the control mice.

The test system of assay [3] is experimental allergic encepharomyelitis (EAE). Put plainly: Experimental allergic encepharomyelitis (EAE). To be noted: Rattus norvegicus, po, 432 h, day 0 to 13, cumulative score for 18 days, rats, read-out: Inhibition of clinical score; for inhibition in vivo at 100 mg/kg: 100 mg/kg p.o. once a day; for inhibition in vivo at 30 mg/kg: 30 mg/kg p.o. once a day. The assay is classed as in vivo, Lewis female rats. The method, then: Effect of the test compounds on experimental allergic encep-haromyelitis. Experimental allergic encepharomyelitis (EAE) is a prototype for cell-mediated autoimmune diseases, and has been widely used as an animal model of multiple sclerosis. According to the method described by Deguchi et al., Brain and Nerve, Vol.42, pp.391-397(1990), EAE was induced by using Lewis female rats (5 rats per group). […] 0.5 % CMC solution instead of the test compound was administered to the control rats. The cumulative score of the symptoms for 18 days was obtained and the inhibitory percentage in the cumulative score produced by the test compound group was expressed relative to the cumulative score from the control group.

The subject of a further assay is CD11b. Put plainly: Enhanced expression of CD11b in HL-60 cells stimulated by PMA (flow cytometry). In kind it is cell-based, human. To be noted: 10 μg/ml; HL-60, 24 hours; mean ± S.E., 6 measurements; control 82.2 ± 4.9. The method, then: Effect of the test compounds on the enhanced expression of cell adhesion molecule CD11b in HL-60 (human promyelocytic leukemia cell line)stimulatedby phorbol myristate acetate (PMA).
CD11b is the α-chain of cell adhesion molucule Mac-1, which is expressed in the activation of monocytes. The effect of the test compounds on the expression of CD11b on monocytes, HL-60 cells was analyzed. In brief, 5×10^6 HL-60 cells were suspended in 2 ml of RPMI-1640 containing 10% fetal calf serum (FCS) in each well of a 12-well multiplate, and then PMA ([…] final concentration) and the test compound were added to themedium. After incubation at 37° C. for 24 hours in an atmosphere containig 5% CO2, the cells were collected and was hed with PBS. 3×10^3 HL-60 cells were resuspended in 300 μl PBS(containing 1% FCS) and incubated with 5 μl of phycoerythrin-conjugated mouse anti-human CD11b antibody. After 1 hour incubation at 4° C., the cells were washed with PBS. The cells were analyzed on flow cytometry, and the results were expressed as the enhanced percentage of CD11b positive cells in the treated group relative to the PMA-untreated group.
Background: A flow cytometer gives signals particle by particle.

Assay [4] relates to very late antigen-4 (VLA-4). As to the kind of experiment: Expression of VLA-4 on lymphocytes from EAE rats (flow cytometry). In kind it is in vivo, rat. To be noted: 100 mg/kg, ten days after immunization, control 29.9. The method, then:
Effect of the compounds on the expression of cell adhesion molecule (very late antigen-4:VLA-4) in EAE rats.
VLA-4 is one of the cell adhesion molecules which may be involved in the migration of lymphocytes. The effect of the compounds on the expression of VLA-4 on lymphocytes from EAE rats was examined. […] The leukocyte fraction was isolated from 5ml of the blood by density gradient centrifugation. 5×10^5of the leukocytes were suspended in 0.5 ml of phosphate buffered saline (PBS) containing 0.1 % bovine serum albumin and then reacted with 5 μl of mouse anti-rat VLA-4 antibo dy. After incubation at 4° C. for 1 hour, the cells were reacted with fluorescence isothiocyanate-conjugated sheep anti-mouse immunoglobulin for a further 30 min. The cells were washed with PBS and were analyzed on flow cytometry. The lymphocyte population was isolated to construct on based a forward and 90° light scatter. The results were expressed as a percentage of VLA-4 positive cell number to the lymphocyte number.

The mark [5] stands for this setting: 2 × 10^6 cells sensitization, 10 mg/kg p.o. for 3 days.
[6] abbreviates: 2 × 10^8 cells sensitization, 10 mg/kg p.o. for 3 days.
[7] abbreviates: 2 × 10^6 cells sensitization, 1 mg/kg p.o. for 3 days.
Where [8] appears, read: 2 × 10^6 cells sensitization, 100 mg/kg p.o. for 3 days.
Setting [9] is: 2 × 10^8 cells sensitization, 1 mg/kg p.o. for 3 days.
Where [10] appears, read: 2 × 10^8 cells sensitization, 100 mg/kg p.o. for 3 days.

Structures are written as SMILES.

In the case of `C[C@]12C=CC(=O)C=C1CC[C@@H]1[C@@H]2[C@@H](O)C[C@@]2(C)[C@H]1CC[C@]2(O)C(=O)CO` [PREDNISOLONE, prednisolone, reference compound], in assay [1] (setting [5]), the “PFC number, percentage of control group” value came to 81 PERCENTAGE and the “PFC No./spleen” value is given as 3.97 ± 0.78 ×10^3. In assay [1] (setting [6]), the “PFC number, percentage of control group” value worked out at 7 PERCENTAGE and the “PFC No./spleen” value was 17 ± 3 ×10^3. In addition, the inhibition in vivo at 10 mg/kg in assay [2] turned out to be 44%.
For the molecule `CS(=O)(=O)Nc1cc2occ(NC=O)c(=O)c2cc1Oc1ccccc1` [compound No. 1, 3-formylamino-7-methylsulfonylamino-6-phenoxy-4H-1-benzopyran-4-one], the “PFC number, percentage of control group” value amounted to 145 PERCENTAGE in assay [1] (setting [7]); 146 PERCENTAGE in assay [1] (setting [5]); 111 PERCENTAGE in assay [1] (setting [8]); 963 PERCENTAGE in assay [1] (setting [9]); 92 PERCENTAGE in assay [1] (setting [6]); 54 PERCENTAGE in assay [1] (setting [10]). Besides, the “PFC No./spleen” value is on record as 7.06 ± 1.17 ×10^3 in assay [1] (setting [7]); 7.13 ± 0.52 ×10^3 in assay [1] (setting [5]); 5.40 ± 0.49 ×10^3 in assay [1] (setting [8]); 231 ± 18 ×10^3 in assay [1] (setting [9]); 221 ± 17 ×10^3 in assay [1] (setting [6]); 129 ± 20 ×10^3 in assay [1] (setting [10]). Also, the inhibition in vivo at 1 mg/kg in assay [3] (1 mg/kg p.o. once a day) was 21%. Further, the inhibition in vivo at 100 mg/kg in assay [3] is 67%; in assay [2], 39%. In the assay with CD11b, the “CD11b increased rate of expression” value was determined as 49.9 ± 1.8%. Moreover, the “Percentage of VLA-4 positive cell (mean)” value in assay [4] came to 12.0 PERCENTAGE. In assay [2], the inhibition in vivo at 10 mg/kg is 12%. Further, in assay [2], the inhibition in vivo at 30 mg/kg is 27%.
Turning to `CC(C)(S)[C@@H](N)C(=O)O` [D-PENICILLAMINE, D-penicillamine, reference compound], the inhibition in vivo at 100 mg/kg in assay [3] was -10%; in assay [2], -3%.
Take `CS(=O)(=O)Nc1cc2occc(=O)c2cc1Oc1ccccc1` [compound No. 2, 7-methylsulfonylamino-6-phenoxy-4H-1-benzopyran-4-one]: the inhibition in vivo at 100 mg/kg in assay [2] was found to be 17%.
For the molecule `CS(=O)(=O)Nc1cc2occ(C(=O)O)c(=O)c2cc1Oc1ccccc1` [compound No. 7, 3-carboxy-7-methylsulfonylamino-6-phenoxy-4H-1-benzopyran-4-one], the inhibition in vivo at 30 mg/kg in assay [3] was found to be 50%. Moreover, the inhibition in vivo at 100 mg/kg in assay [2] amounted to 16%.
The corresponding values for `CS(=O)(=O)Nc1cc2occ(C(N)=O)c(=O)c2cc1Nc1ccc(F)cc1F` [compound No. 10, 3-carbamoyl-6-(2,4-difluorophenylamino)-7-methylsulfonylamino-4H-1-benzopyran-4-one] are 42% and 20%.
As for `CS(=O)(=O)Nc1cc2occc(=O)c2cc1Oc1ccc(F)cc1F` [compound No. 3, 6-(2,4-difluorophenoxy)-7-methylsulfonylamino-4H-1-benzopyran-4-one], the results for the inhibition in vivo at 30 mg/kg in assay [3] and in assay [2] were 86% and 48%, respectively.
With `CS(=O)(=O)Nc1cc2occ(C(N)=O)c(=O)c2cc1Oc1ccccc1` [compound No. 4, 3-carbamoyl-7-methylsulfonylamino-6-phenoxy-4H-1-benzopyran-4-one], the inhibition in vivo at 30 mg/kg in assay [3] was 50%. Besides, the inhibition in vivo at 100 mg/kg in assay [2] was 41%.
As for `O=C(O)c1cc(/N=N/c2ccc(S(=O)(=O)Nc3ccccn3)cc2)ccc1O` [SULFASALAZINE, Sulfasalazine, reference compound], the inhibition in vivo at 300 mg/kg in assay [3] (300 mg/kg p.o. once a day) came to 1%. In addition, the inhibition in vivo at 100 mg/kg in assay [2] came out at 5%.
As to `Cc1cc(=O)c2cc(Oc3ccccc3)c(NS(C)(=O)=O)cc2o1` [compound No. 11, 2-methyl-7-methyl sulfonylamino-6-phenoxy-4H-1-benzopyran-4-one], in assay [3], the inhibition in vivo at 30 mg/kg is 52%.
On the same count and under the same terms, in the case of `CS(=O)(=O)Nc1cc2occ(NC=O)c(=O)c2cc1Nc1ccccc1F` [compound No. 12, 6-(2-fluorophenylamino)-3-formylamino-7-methylsulfonylamino-4H-1-benzopyran-4-one] it was 67%.
In the case of `CN(C=O)c1coc2cc(NS(C)(=O)=O)c(Oc3ccccc3)cc2c1=O` [compound No. 6, 3-(N-formyl-N-methyl)amino-7-methylsulfonylamino-6-phenoxy-4H-1-benzopyran-4-one], the inhibition in vivo at 30 mg/kg in assay [3] was determined as 66%. Also, in assay [2], the inhibition in vivo at 100 mg/kg came out at 17%.
`CSc1coc2cc(NS(C)(=O)=O)c(Oc3ccccc3)cc2c1=O` [compound No. 8, 3-methylthio-7-methylsulfonyl amino-6-phenoxy-4H-1-benzopyran-4-one]: the inhibition in vivo at 30 mg/kg in assay [3] was determined as 17%. In addition, the inhibition in vivo at 100 mg/kg in assay [2] came out at 21%.
The corresponding values for `CS(=O)(=O)Nc1cc2occ(NC=O)c(=O)c2cc1Nc1ccc(F)cc1F` [compound No. 9, 6-(2,4-difluorophenylamino)-3-formylamino-7-methylsulfonylamino-4H-1-benzopyran-4-one] are 50% and 28%.
As for `Cc1oc2cc(NS(C)(=O)=O)c(Oc3ccccc3)cc2c(=O)c1C(N)=O` [compound No. 5, 3-carbamoyl-2-methyl-7-methylsulfonylamino-6-phenoxy-4H-1-benzopyran-4-one], in assay [2], the inhibition in vivo at 100 mg/kg turned out to be 16%.
